The values below come from US20160222014A1, “COMPOUNDS FOR REGULATING FAK AND/OR SRC PATHWAYS” (ASANA BIOSCIENCES, LLC, priority 2013, published 2016).

In general, IC50 refers to the concentration needed to halve the response being measured.

What all share (format): biochemical
The target in experiment [1] is T1, AURKB (Aurora B) enzyme (Homo sapiens, UniProt Q96GD4).
T1 construct: purchased Invitrogen PVR 130
Put plainly: Aurora B HTRF assay. Particulars: read-out: AuroraB IC50. As to the method: AURKB (Aurora B) enzyme was obtained (Invitrogen, Cat No. PVR 130, Lot No. 857013J). A 8.64 μM stock was used at a final concentration 5 nM in the assay.
Lance@Ultera Ulight-PLK (Ser137) peptide substrate
Peptide substrate was obtained from Perkin Elmer (Lot#1629793, TRF0110-M). A 5 μM stock was used at a final concentration of 50 nM in the assay.
10 mM stock prepared freshly as above, used at a final concentration of 30 μM in assay.
The plate was covered with aluminum foil, put on a shaker and incubated 1 h at rt.
Reference: Pfizer aurora inhibitor PF-03814735 was procured from Selleckchem: Cat# S2725
Using stock Lance detection buffer, 1× Lance detection buffer was prepared. • 1. 10× lance detection buffer was diluted to 1×, mixed well and 100 μL was removed, and was used to substitute with antibody and EDTA (for a total of 2200 μL). • 2. 88 μL of […] EDTA was added from 500 mM stock. • 3. 14 μL Europium labeled antibody (LANCE@ Ultra EU-Anti-P-PLK(Ser 137), TRF0203-D, Lot No. 1630351, Perkin Elmer) was added from 625 nM stock; required concentration was 2 nM in the assay. • 4. The buffer well was mixed and 20 μL was transferred to the each well in the assay plate. • 5. The solutions were incubated for 1 h at rt. • 6. The plate was read using MET-HTRF® protocol using Pherastar equipment.
(TR-FRET usually uses a lanthanide donor and a delayed reading to cut background.)

In experiment [2] the target is T2, Recombinant Src enzyme (Homo sapiens, UniProt P12931).
T2 construct: purchased Millipore 14-326; host or cells: Sf21 insect cells
In words: Src HTRF assay. The method, boiled down: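 Run as for the FAK HTRF assay (same buffer, supplements, compound preparation and procedure), with dasatinib included. Reaction contained 0.5 μM biotin-tagged Tyk2 synthetic peptide, 5 nM Src made in Sf21 cells, and a pH7.4-buffer-prepared component at 10 μM final.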

In experiment [3] the target is T3, recombinant human FAK1 (Homo sapiens, UniProt Q05397).
T3 construct: fused on or other part: N-terminal 6xHis tag
Put plainly: FAK1 HTRF assay. The method, boiled down: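 IC50 values derive from HTRF % inhibition (ratio 665/620 nm, Eu–anti-phosphotyrosine 0.1 nM, SA-APC 12 nM). The kinase step ran 45 min at room temperature, pairing 10 nM His-FAK1(692–end) from baculovirus with 0.5 μM gastrin Tyr87 biotin-peptide and a reagent at 10 μM final, pH 7.4. Compound dilutions began at 10 μM.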

T3 sequence (Q05397 422-680 limits assumed): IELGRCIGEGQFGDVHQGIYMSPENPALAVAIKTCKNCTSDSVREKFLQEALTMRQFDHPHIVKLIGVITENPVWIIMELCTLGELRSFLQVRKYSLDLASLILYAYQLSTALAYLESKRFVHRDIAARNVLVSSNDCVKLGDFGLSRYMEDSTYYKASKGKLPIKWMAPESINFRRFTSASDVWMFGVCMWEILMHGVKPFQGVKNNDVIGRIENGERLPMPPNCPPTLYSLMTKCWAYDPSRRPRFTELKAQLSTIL
T1 sequence (Q96GD4 whole entry): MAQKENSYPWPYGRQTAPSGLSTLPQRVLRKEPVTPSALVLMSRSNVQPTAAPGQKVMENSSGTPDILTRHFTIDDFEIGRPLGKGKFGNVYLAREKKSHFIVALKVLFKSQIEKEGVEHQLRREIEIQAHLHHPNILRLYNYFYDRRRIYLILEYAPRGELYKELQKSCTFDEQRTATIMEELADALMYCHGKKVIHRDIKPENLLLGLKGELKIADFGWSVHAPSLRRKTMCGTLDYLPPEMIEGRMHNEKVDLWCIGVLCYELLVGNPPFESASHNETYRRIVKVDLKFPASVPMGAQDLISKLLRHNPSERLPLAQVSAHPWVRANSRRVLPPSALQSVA
T2 sequence (P12931 whole entry): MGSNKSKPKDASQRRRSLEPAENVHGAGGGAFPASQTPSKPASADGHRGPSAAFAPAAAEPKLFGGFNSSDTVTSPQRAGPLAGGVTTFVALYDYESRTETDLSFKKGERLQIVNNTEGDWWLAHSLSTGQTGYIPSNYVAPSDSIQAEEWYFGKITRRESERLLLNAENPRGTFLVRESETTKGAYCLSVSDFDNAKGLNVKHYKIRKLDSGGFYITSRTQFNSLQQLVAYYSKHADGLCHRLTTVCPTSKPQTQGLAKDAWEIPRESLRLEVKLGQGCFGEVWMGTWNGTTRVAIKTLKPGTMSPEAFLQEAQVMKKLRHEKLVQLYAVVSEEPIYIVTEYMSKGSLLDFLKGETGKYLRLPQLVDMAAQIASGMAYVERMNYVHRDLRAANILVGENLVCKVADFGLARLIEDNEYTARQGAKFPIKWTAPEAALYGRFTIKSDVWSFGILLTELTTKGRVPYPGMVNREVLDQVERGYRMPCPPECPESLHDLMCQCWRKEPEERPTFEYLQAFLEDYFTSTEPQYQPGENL

Take `FC(F)Oc1ccccc1Cn1ccc2cnc(Nc3ccc4ncsc4c3)cc21` [Example 20]: the IC50 in experiment [1] and in experiment [2] was greater than 1000 nM each time.

`CN(c1cccc(Cn2ccc3cnc(Nc4ccc5c(c4)CCC(=O)N5)nc32)c1)S(C)(=O)=O` [Example 50]: the values for the IC50 in experiment [1] and in experiment [2] were less than 20 nM and greater than 1000 nM, respectively.

In the case of `CNS(=O)(=O)c1cccc(Cn2ccc3cnc(Nc4ccc5c(c4)CCC(=O)N5)nc32)c1` [Example 60], the figures for the IC50 in experiment [1] and in experiment [2] were less than 20 nM and greater than 1000 nM, respectively.

As to `CC(=O)Nc1cccc(Nc2cc3c(cn2)cnn3S(=O)(=O)c2ccccc2OC(F)(F)F)c1` [Example 86], the IC50 in experiment [1] and in experiment [2] was greater than 1000 nM in each case.

`Cc1nn(S(=O)(=O)c2ccccc2OC(F)(F)F)c2cc(Nc3ccc4c(c3)CCC(=O)N4)ncc12` [Example 90]: the IC50 in experiment [1] is less than 20 nM; in experiment [2] it was greater than 1000 nM.

Consider `O=c1[nH]c2ccc(Nc3ncc4ccn(S(=O)(=O)c5ccccc5OC(F)(F)F)c4n3)cc2[nH]1` [Example 93], for which the IC50 in experiment [1] was less than 20 nM; in experiment [2], greater than 1000 nM.

`CN(c1ncccc1Cn1ccc2cnc(Nc3ccc(N4CCNCC4=O)cc3)nc21)S(C)(=O)=O` [Example 102]: the IC50 in experiment [1] is less than 20 nM; in experiment [2], greater than 1000 nM.

As to `CN(c1ncccc1Cn1ccc2cnc(Nc3ccc(N4CCOCC4)cn3)nc21)S(C)(=O)=O` [Example 107], the IC50 is less than 20 nM in experiment [1] and greater than 1000 nM in experiment [2].

Regarding `CN(C)CCOc1cccc(Nc2cc3c(ccn3S(=O)(=O)c3ccccc3OC(F)(F)F)cn2)c1` [Example 126], the IC50 in experiment [1] was less than 20 nM; in experiment [2], greater than 1000 nM.

As to `CN1C(=O)CCc2cc(Nc3ncc4ccn(Cc5cccnc5N(C)S(C)(=O)=O)c4n3)ccc21` [Example 136], the IC50 in experiment [1], in experiment [3] and in experiment [2] was less than 20 nM in each case.

As to `COc1cccc(Nc2ncc3ccn(S(=O)(=O)c4ccccc4C#N)c3n2)c1` [Example 178], the IC50 was less than 20 nM in experiment [1] and greater than 1000 nM in experiment [2].

For `Cc1cc(Nc2ncc3ccn(S(=O)(=O)c4cccc5cccnc45)c3n2)ccc1N1CCNCC1` [Example 196], the IC50 in experiment [1], in experiment [3] and in experiment [2] was less than 20 nM each time.

`Cc1cc(Nc2ncc3ccn(S(=O)(=O)c4ccccc4C#N)c3n2)ccc1N1CCNCC1` [Example 212]: the IC50 in experiment [1], in experiment [3] and in experiment [2] was less than 20 nM in each case.

As to `O=S(=O)(c1cccc2ccccc12)n1ccc2cnc(Nc3ccc(N4CCNCC4)cc3)nc21` [Example 219], the IC50 in experiment [1], in experiment [3] and in experiment [2] was less than 20 nM in each case.

Turning to `CC(=O)Nc1ccc(Nc2cc3c(cn2)cnn3S(=O)(=O)c2cccc3cccnc23)cc1` [Example 315], the results for the IC50 in experiment [1] and in experiment [2] were less than 20 nM and greater than 1000 nM, respectively.

In the case of `COc1ccccc1S(=O)(=O)n1ccc2cnc(Nc3ccc(N4CCNCC4)cc3)cc21` [Example 343], the IC50 is less than 20 nM in experiment [1], less than 20 nM in experiment [3] and greater than 1000 nM in experiment [2].

Consider `O=S(=O)(c1cccc2cccnc12)n1ncc2cnc(Nc3ccc(N4CCC(O)CC4)cc3)cc21` [Example 345], for which the IC50 is less than 20 nM in experiment [1], less than 20 nM in experiment [3] and greater than 1000 nM in experiment [2].

Turning to `COc1cc(N2CCNCC2)ccc1Nc1cc2c(ccn2Cc2cccnc2N(C)S(C)(=O)=O)cn1` [Example 366], the IC50 in experiment [1] and in experiment [2] was greater than 1000 nM each time.

For the molecule `O=S(=O)(c1cccc2cccnc12)n1ncc2cnc(Nc3ccc(N4CC5CC4CN5)cc3)cc21` (stereo not drawn) [Example 383], the values for the IC50 in experiment [1] and in experiment [2] were less than 20 nM and greater than 1000 nM, respectively.

For the molecule `COc1cc(N2CCOCC2)ccc1Nc1cc2c(ccn2S(=O)(=O)c2cccc3cccnc23)cn1` [Example 401], the IC50 was less than 20 nM in experiment [1], less than 20 nM in experiment [3] and greater than 1000 nM in experiment [2].

As to `COc1cc(Nc2ncc3ccn(Cc4ccccc4N(C)S(C)(=O)=O)c3n2)ccc1N1CCN(C)CC1` [Example 429], the IC50 in experiment [1], in experiment [3] and in experiment [2] was less than 20 nM throughout.

Turning to `CN(c1ncccc1CN1CC(C)(C)c2cnc(Nc3ccc(N4CCNCC4)cc3)nc21)S(C)(=O)=O` [Example 437], the IC50 in experiment [1], in experiment [3] and in experiment [2] was greater than 1000 nM each time.

Consider `COc1cc(N2CCN(C)CC2)ccc1Nc1ncc2c(n1)N(S(=O)(=O)c1cccc3cccnc13)CC2(C)C` [Example 504], for which the IC50 is greater than 1000 nM in experiment [1], less than 20 nM in experiment [3] and greater than 1000 nM in experiment [2].

With `O=S(=O)(c1cc(Cl)ccc1Cl)N1CC2(CC2)c2cnc(Nc3ccc(N4CCNCC4)cc3)nc21` [Example 510], the IC50 in experiment [1] and in experiment [2] was greater than 1000 nM each time.

`CN(c1ccccc1C(=O)N1CC(C)(C)c2cnc(Nc3ccc(N4CCNCC4)cc3)nc21)S(C)(=O)=O` [Example 528]: the IC50 in experiment [1], in experiment [3] and in experiment [2] was greater than 1000 nM throughout.

As to `CC1(C)CN(S(=O)(=O)c2ccccc2C#N)c2cc(Nc3ccc(N4CCNCC4)cc3)ncc21` [Example 532], the 50% inhibitory concentration (IC50) in experiment [1] and in experiment [2] was greater than 1000 nM throughout.

As to `CS(=O)(=O)N(CCN)c1ccccc1Cn1ccc2cnc(Nc3ccc(N4CCNCC4)cc3)nc21` [Example 558], the IC50 in experiment [1], in experiment [3] and in experiment [2] was greater than 1000 nM throughout.

With `COc1cc(N2CCC(N(C)C)CC2)ccc1Nc1ncc2ccn(Cc3ccccc3N(C)S(C)(=O)=O)c2n1` [Example 628], the IC50 in experiment [1] and in experiment [2] was greater than 1000 nM throughout.

In the case of `COc1cc(N2CCN[C@@H](C)C2)ccc1Nc1ncc2ccn(Cc3cccnc3N(C)S(C)(=O)=O)c2n1` [Example 629], the IC50 in experiment [1] and in experiment [2] was greater than 1000 nM throughout.

As to `COc1cc(N2CCC(N(C)C)CC2)ccc1Nc1ncc2ccn(Cc3cccnc3N(C)S(C)(=O)=O)c2n1` [Example 634], the IC50 in experiment [1] and in experiment [2] was greater than 1000 nM throughout.

Regarding `CN(c1ncccc1Cn1cc(C(N)=O)c2cnc(Nc3ccc(N4CCNCC4)cc3)nc21)S(C)(=O)=O` [Example 734], the IC50 in experiment [3] and in experiment [2] was greater than 1000 nM throughout.

Take `CN(C)C1CCN(c2ccc(Nc3ncc4c(n3)N(c3ccccc3NS(C)(=O)=O)CC4(C)C)cc2)CC1` [Example 784]: the IC50 in experiment [3] and in experiment [2] was greater than 1000 nM throughout.

On to `CN(C)C1CCN(c2ccc(Nc3nc4c(ccn4Cc4cccnc4N(C)S(C)(=O)=O)cc3C#N)cc2)CC1` [Example 785], for which the IC50 in experiment [3] and in experiment [2] was greater than 1000 nM in each case.

As for `Cc1ccc(N(C)S(C)(=O)=O)c(Cn2ccc3cnc(Nc4ccc5c(c4)CC(=O)N5)nc32)c1` [Example 786], the IC50 is less than 20 nM in experiment [3] and greater than 1000 nM in experiment [2].

In the case of `CC(=O)N(C)c1ccccc1Cn1ccc2cnc(Nc3ccc(N4CCN[C@H](C)C4)cc3)nc21` [Example 787], the IC50 in experiment [3] and in experiment [2] was greater than 1000 nM each time.

Consider `CC(=O)N(C)c1ccccc1Cn1ccc2cnc(Nc3ccc(N4CCC(N(C)C)CC4)cc3)nc21` [Example 788], for which the IC50 in experiment [3] and in experiment [2] was greater than 1000 nM each time.
